How the values were obtained:
Lrat−/− mice [1] = conditions: dark room reared Lrat−/− mice; 6 gavages of 0.12 mg each over two weeks; vs untreated control Lrat−/− mice; cited from earlier work
Rpe65−/− mice = assay: Retinoid treatment in LCA mouse model with RPE65 deficiency; format: in vivo
Source text: (§1) We designed a polysaccharide therapeutic conjugate composition for the sustained release of 9-cis-retinyl esters to treat animal models of human retinal diseases, such as LCA. […] Unless initial high drug blood levels are unfavorable, this pharmacokinetic property could be beneficial because it relates to the therapeutic window, especially for drugs targeting peripheral tissues such as the retina through protein-mediated and protein-independent transport systems. A bolus dose could also establish a reversible depot of the drug in other tissues, thereby reducing the need for frequent dosing.

Lrat−/− mice [2] = assay: Oral gavage of 9-cis-R-Ac in LCA mouse model with LRAT deficiency; format: in vivo
Source text: as §1

[3] = 9-cis-retinoid concentrations in plasma after gavage; format: in vivo, mouse
Source text: as §1

SMILES	ROS layer thickness (Lrat−/− mice [1])	RPE-ROS interface (Lrat−/− mice [1])	retinal morphology (Rpe65−/− mice; oral gavage, Rpe65−/− mice)	visual function (Rpe65−/− mice; oral gavage, Rpe65−/− mice)	retinal morphology (Lrat−/− mice [2])	visual function (Lrat−/− mice [2])	9-cis-retinoid concentrations in plasma ([3]; 5 hours after oral administration)	9-cis-retinoid concentrations in plasma ([3]; after gavage)	visual function (Rpe65−/− mice; single dose, Rpe65−/− mice kept under laboratory lighting conditions)
CC(=O)OC/C=C(C)/C=C/C=C(C)\C=C\C1=C(C)CCCC1(C)C [9-cis-R-Ac, 9-cis-retinyl acetate]	substantially thicker	closer apposition	preserves retinal morphology	improves visual function	preserves retinal morphology	improves visual function	dropped markedly to low levels	increased rapidly to high levels	
CC1=C(/C=C/C(C)=C\C=C\C(C)=C\C=O)C(C)(C)CCC1 [9-cis-retinal]									rescued visual function for months

From patent publication US10226536B2, “Polysaccharide therapeutic conjugates” (priority 2011, dated 2019)
